Test results taken from US20230355557A1, “ANTIVIRAL SOX INHIBITORS” (Gertrude Biomedical Pty LTD, priority 2020, published 2023).

Columns and labels:
Type in all cases: cell-based
[1] = target: T1, SOX18 (Homo sapiens, UniProt P35713); assay: SOX18 luciferase reporter assay (7XTR and OriA reporters) in HeLa cells; conditions: HeLa cells transfected with SOX18 and 7xTR or OriA reporter, 24 hours treatment (FIG. 2)
T1 construct: expressed in transfected cells; host or cells: HeLa
T1 sequence (P35713 1-384): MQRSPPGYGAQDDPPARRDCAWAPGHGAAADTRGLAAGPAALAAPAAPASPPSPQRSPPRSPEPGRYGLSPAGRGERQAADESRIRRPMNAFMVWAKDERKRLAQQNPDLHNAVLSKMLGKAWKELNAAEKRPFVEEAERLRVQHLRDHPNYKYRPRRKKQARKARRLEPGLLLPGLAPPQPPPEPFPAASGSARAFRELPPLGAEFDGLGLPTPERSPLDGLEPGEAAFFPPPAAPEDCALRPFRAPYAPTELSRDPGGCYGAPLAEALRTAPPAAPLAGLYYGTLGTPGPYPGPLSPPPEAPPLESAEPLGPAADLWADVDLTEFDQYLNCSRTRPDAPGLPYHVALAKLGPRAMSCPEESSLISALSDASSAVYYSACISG
Protocol: Luciferase signal was quantified and single values from n=3 technical replicates are shown. Data points represent mean + SD. P values were calculated using a 2-way and ordinary one way ANOVA followed by Dunnett’s multiple comparison test.
(§1) KSHV-infected cells were incubated with the indicated inhibitor at the concentrations stated in the Figure panels for six days prior to analysis. HeLa cells were incubated with the indicated inhibitor at the concentrations stated in the Figure panels for 24 hours prior to analysis.
HeLa cells were cultured in DMEM containing 10% FCS, 1% L-glutamine and 1% pen/strep at 37° C. & 5% CO2. Cells were seeded at a density of 7000 cells per well in 125 µL of the maintenance medium in a 96-well format for 24 hours.
Plasmids were transfected using FuGENE HD Transfection Reagent (Promega E2311) (1:4 DNA to reagent ratio) and Opti-MEM (ThermoFisher 31985062). OriA-luc negative control and experimental wells contained 25 ng OriA-luc plasmid and 10 ng SOX18 plasmid per well, positive control contained 25 ng OriA-luc plasmid and 10 ng mCherry plasmid per well. 7XTR-luc negative control and experimental wells contained 50 ng 7XTR-luc plasmid and 20 ng SOX18 plasmid per well, positive control contained 50 ng 7XTR-luc plasmid and 20 ng mCherry plasmid per well. Cell were incubated for 18 hours before cells were replenished with new medium containing experimental compounds and incubated for 24 hours.
Luminescence was measured by adding an equal volume of Steady-Glo reagent to cells at room temperature and luminescence was quantified using the FLUOstar plate reader (BMG Labtech, FLUOstar Omega; 4 sec intervals per well).
Activation of these genes was measured using HeLa cells that were transfected with luciferase-reporters harbouring either seven copies of the TR (7XTR) or the OriA promoter fused to OriLyt upstream of an SV40 promoter and a firefly luciferase reporter. ORF, that binds to the OriLyt and is a potent activator of this reporter (Chen J et al., (2009) Virology 386:290-302) was used as a positive control. […]

[2] = target: T2, SOX18 (Mus musculus, UniProt P43680); assay: VCAM-1 luciferase reporter assay in COS-7 cells transfected with Vcam-1 promoter construct and SOX18; conditions: VCAM-1 promoter luciferase, 24 hr compound incubation, % of maximal signal without compound
T2 construct: expressed in transfected cells; host or cells: COS-7 (monkey kidney fibroblast-like cells)
T2 sequence (P43680 1-377): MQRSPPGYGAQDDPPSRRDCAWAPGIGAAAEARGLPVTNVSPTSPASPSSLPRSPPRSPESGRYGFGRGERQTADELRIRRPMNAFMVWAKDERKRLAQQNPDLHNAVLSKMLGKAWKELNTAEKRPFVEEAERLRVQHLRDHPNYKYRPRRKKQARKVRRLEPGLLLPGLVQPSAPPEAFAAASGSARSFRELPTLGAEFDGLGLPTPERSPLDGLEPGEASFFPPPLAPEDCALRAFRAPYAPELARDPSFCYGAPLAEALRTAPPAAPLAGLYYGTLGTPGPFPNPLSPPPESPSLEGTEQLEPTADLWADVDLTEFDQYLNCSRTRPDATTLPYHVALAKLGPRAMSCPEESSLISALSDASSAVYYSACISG
Protocol: Monkey kidney fibroblast-like cells (COS-7) were cultured at 37° C. and 5% CO2 in DMEM (Life Technologies, 11995) with fetal bovine serum (FBS), sodium pyruvate, L-glutamine, penicillin, streptomycin, non-essential amino acids, and HEPES. Cells were grown in 96-well plates to 80% confluence and transfected with mouse plasmids pGL2 Vcam-1 promoter construct (VC1889) and pReceiver M49 SOX18, using X-tremeGENE HP DNA transfection reagent (Roche, 6366236001). After 4 hr of transfection, cells were incubated with compounds in 0.5% FBS medium for another 24 hr, before lysis and luciferase assay (Perkin Elmer, 6016711). Results are presented as %inhibition of the maximal signal observed in cells transfected with VCAM-1 and SOX18 without compound incubation.
The second assay measured the interaction between SOX18 and the VCAM-1 promoter (Hosking et al., (2004) J Biol. Chem. 297:5314-5322). […] Without wishing to be bound by theory, it is understood that viral infection can induce an inflammatory response of endothelial cells, the latter being a result of VCAM-1 gene expression which is regulated by SOX18 activity (Huber J. (1994) J Virol. 68(6):3453-8). Put another way, the expression of VCAM-1 is driven by SOX18 so upon virus infection, SOX18 binds to the VCAM promoter and induces expression of VCAM.
The compounds described in Table 2 were tested by the VCAM-1 luciferase reporter assay. The results are shown in Table 2 under the column %inhibition of SOX18.

[3] = system: Kaposi sarcoma herpesvirus (KSHV); assay: KLEC genome copy number assay in KSHV-infected primary human dermal lymphatic endothelial cells; conditions: KSHV-infected LECs, 6 days
Protocol: The relative expression of KSHV from control was quantified and single values from n=3 technical replicates are shown. Bars represent mean + SD. P values were calculated using a 2-way ANOVA (left) and ordinary one way-ANOVA (right) followed by Dunnett’s multiple comparison test.
as §1
Primary human dermal lymphatic (C-12216) endothelial cells (LECs) were purchased from Promocell and grown in Lonza EBM-2 (00190860) supplemented with EGMTM-2 MV Microvascular Endothelial SingleQuotsTM(CC-4147). Cell from passage 1-3 were used.
rKSHV.219 was produced from iSLK.219 cells reactivated using 0.2 µg/ml doxycycline and 1.35 mM NaB for 72 h. Supernatant was harvested, spun down (2000 rpm 5 min) and sterile filtered using […] pore-size filters. Subsequently the supernatant was ultracentrifuged at 22000 rpm for 2 h. The concentrated virus was then aliquoted and stored at -80° C.
Equal number of LECs were seeded into 6-well assay-plates and incubated at 37° C. & 5% CO2 until 80% confluency. After reaching confluency, LECs were infected with rKSHV.219 and incubated at 37° C. & 5% CO2 for 3 days, making sure that the cell density remained similar. Cell were subsequently mixed at a 2:3 ratio with uninfected LECs for 2 days. Once GFP expression and cell spindling was observed the culture medium was replaced with medium containing the experimental compounds with 0.25% DMSO (v/v) at concentrations from 0.1 uM to 50 uM. After 3 days of incubation, the cells were replenished with new medium containing experimental compounds and incubated for 3 more days.
After compound incubation, cells were collected and genomic and viral DNA was extracted using the NucleoSpin Tissue Kit (Macherey-Nagel, 740952) following the kit’s standard protocol. qPCR was subsequently completed (SYBR Green, ThermoFisher K0222) in triplicates using primers for viral K8.1 and Human genomic actin. K8.1 forward primer: […] (SEQ ID NO:1); reverse primer: […] (SEQ ID NO:2). Genomic acid forward primer: […] (SEQ ID NO:3); reverse primer: […] (SEQ ID NO:4).
A KLEC assay was used to examine the ability of the compounds to inhibit viral copy number in virus infected primary human dermal lymphatic endothelial cells (LECs).

Row | %inhibition of Sox18 [2] [%] | Structure (SMILES) | further results
1 | 49.18 | O=C(O)c1c(O)cccc1CCc1ccccc1 [GB003, 2-hydroxy-6-phenethylbenzoic acid] | 
2 | 96.7 | Cc1cc(O)c(C(=O)O)c(CCc2ccc3ccccc3c2)c1 [GB012, 2-hydroxy-4-methyl-6-(2-(naphthalen-2-yl)ethyl)benzoic acid] | 
3 | 54.02 | O=C(O)c1c(O)cc(Cl)cc1CCc1ccc2ccccc2c1 [GB019, 4-chloro-2-hydroxy-6-(2-(naphthalen-2-yl)ethyl)benzoic acid] | 
4 | 67.19 | COc1cc(O)c(C(=O)O)c(CCc2ccc3ccccc3c2)c1 [GB025, 2-hydroxy-4-methoxy-6-(2-(naphthalen-2-yl)ethyl)benzoic acid] | 
5 | 47.43 | COc1cccc(CCc2cccc3ccccc23)c1C(=O)O [GB027, 2-methoxy-6-(2-(naphthalen-1-yl)ethyl)benzoic acid] | 
6 | 48.31 | COC(=O)c1c(O)cccc1CCc1ccc(Cl)cc1 [GB028, methyl 2-(4-chlorophenethyl)-6-hydroxybenzoate] | 

Further lines, the molecule ahead of its results:

Row | Structure (SMILES) | %inhibition of Sox18 [2] [%] | further results
7 | O=C(O)c1c(O)cccc1CCc1ccc2ccccc2c1 [GB001, 2-hydroxy-6-(2-(naphthalen-2-yl)ethyl)benzoic acid] | 99.10 | interference with SOX18-mediated gene transcription (luciferase signal) [1]: interferes with SOX18-mediates gene transcription; reduction in KSHV genome copy number (fold change) ([3]; 10 µM): Significant reduction in genome copy number; reduction in KSHV genome copy number (fold change) ([3]; 50 µM): Significant reduction in genome copy number
8 | COc1cccc(/C=C/c2ccc3ccccc3c2)c1C(=O)O [GB002, (E)-2-methoxy-6-(2-(naphthalen-2-yl)vinyl)benzoic acid] | 30.78 | interference with SOX18-mediated gene transcription (luciferase signal) [1]: interferes with SOX18-mediates gene transcription; reduction in KSHV genome copy number (fold change) ([3]; 50 µM): Significant reduction in genome copy number
9 | O=C(O)c1c(O)cccc1CCc1ccc(Cl)cc1Cl [GB004, 2-(2,4-dichlorophenethyl)-6-hydroxybenzoic acid] | 48.26 | interference with SOX18-mediated gene transcription (luciferase signal) [1]: interferes with SOX18-mediates gene transcription; reduction in KSHV genome copy number (fold change) ([3]; 5 µM): Significant reduction in genome copy number
10 | COc1ccc(CCc2cccc(OC)c2C(=O)O)cc1 [GB005, 2-methoxy-6-(4-methoxyphenethyl)benzoic acid] | 25.32 | 
11 | COc1cccc(COCc2ccc3ccccc3c2)c1C(=O)O [GB006, 2-methoxy-6-((naphthalen-2-ylmethoxy)methyl)benzoic acid] | 19.33 | 
12 | COC(=O)c1c(O)cccc1/C=C/c1ccccc1 [GB026, methyl (E)-2-hydroxy-6-styrylbenzoate] | 49.66 | 
